Assay results as given in article PMC9252919, “Controlled masking and targeted release of redox-cycling ortho-quinones via a C–C bond-cleaving 1,6-elimination” (Nature Chemistry, 2022).

Columns and labels:
[1] = tested on: HL-60 cells; assay: Cellular ROS detection with 2',7'-dichlorodihydrofluorescein diacetate; format: cell-based, human; conditions: 50 µM, 15 min
Procedure: To determine ROS generation by compounds in leukaemia cells, HL-60 cells were washed with PBS, then incubated in serum-free media (10 ml of 1.6 × 10^6 ml^−1 cell concentration) with 2,7-dichlorofluorescin diacetate at 20 µM for 30 min at 37 °C. Following this, the cells were washed with PBS and resuspended in Fluorbrite–DMEM media (ThermoFisher) (10 ml). Then, 450 µl of the cell mixture was seeded into wells of a clear flat-bottomed 12-well plate, to which 50 µl of a 10× stock of the compounds in media had been already added, to achieve a final compound concentration of 50 µM. The 10× media stocks were made by 100-fold dilution of DMSO compound stocks, to ensure a final in-plate DMSO concentration of 0.1%. DMSO 0.1% only was used as a negative control. […] After plating the cells were immediately incubated at 37 °C in the dark for 15 min before the fluorescence of the wells (excitation, 485 nm; emission, 535 nm) was recorded (MiniMax i3x Imager, Molecular Devices).

[2] = tested on: range of cancer cell lines, including leukaemia, breast, colon and cervical cancer; assay: Viability assay (CellTiter-Blue) with small-molecule lapachone models; format: cell-based; conditions: 48 h
Procedure: Assays assessing cytotoxicity of β-lapachone and derivatives were performed by CellTiter-Blue assay (Promega) according to the manufacturer’s instructions. Briefly, adherent cancer-cell lines were plated at 20,000 cells per well in 96-well plates or suspension cell lines were plated at a concentration of 2 × 10^5 cells ml^−1 in 24-well plates. Compound stocks in media were made by dilution of DMSO stocks containing the compound of interest to obtain a final in-plate DMSO concentration of only 0.1%. Incubation was performed for 48 h. Following incubation, media was replaced with media containing CellTiter-Blue (Promega) in 1:10 dilution and the plates were incubated for 1.5–4 h. The fluorescence of the plates was recorded (excitation, 555 nm; emission, 585 nm; MiniMax i3x Reader, Molecular Devices). Cell viability was calculated by division of the fluorescence intensity of treated wells by that of the calculated average fluorescence intensity of replicate negative control wells containing cells with 0.1% DMSO only. IC50 values were calculated using GraphPad Prism 8 software.

[3] = tested on: HL-60 cells; assay: Lysosomal deacidification and inhibition assay; format: cell-based, human; conditions: HL-60, NH4Cl 30 mM
Procedure: Assays to assess the effect of lysosomal activity on prodrugs were performed as follows: HL-60 cells were plated into 96-well plates at a concentration of 2.5 × 10^5 cells ml^−1 in 180 µl media. Cells were treated with 10 µl of a stock of NH4Cl in PBS (to obtain an in-plate concentration of 3 or 30 mM), 10 µl of a dilution of a DMSO stock of E64d in PBS (to obtain an in-plate concentration of 30 μM), PBS only or a dilution of DMSO in PBS. Cells were incubated for 30 min. Following this, 10 µl of a stock of test compound made by dilution of a DMSO stock into media was added. DMSO was present in-plate at a maximum of 0.2%. Cells were incubated overnight for 16 h. Following incubation, media was replaced with media containing CellTiter-Blue (Promega) in 1:4 dilution and the plates were incubated for 6 h. The fluorescence of the plates was recorded (excitation, 555 nm; emission, 585 nm; MiniMax i3x Reader, Molecular Devices). Cell viability was calculated by division of the fluorescence intensity of treated wells by that of the average fluorescence intensity of the relevant negative control wells.

[4] = tested on: CD33+ HL-60 cells; assay: Viability assay with small-molecule prodrugs and ADCs, HL-60; format: cell-based, human; conditions: Homo sapiens, read-out: IC50 against CD33+ HL-60 cells
Procedure: (§1) For assays assessing cytotoxicity of β-lapachone versus small-molecule prodrugs, antibodies and ADCs, suspension cells were plated into 24-well plates at a density of 2.5 × 10^5 cells ml^−1 in 240 µl. Stocks of ADC or antibody in PBS were normalized to 12.5 µM. Serial dilutions of compound were made up in PBS. Then, 60 µl of each stock of either PBS or compound in PBS was added to the cells to achieve the desired final concentration. After the specified incubation time, toxicity was assessed by counting of live cells using the trypan blue exclusion method with a Countess II Automated Cell Counter (ThermoFisher Scientific) according to the manufacturer’s instructions. Cell viability was determined by dividing the average live cell number of treated wells by the average live cell number for control wells treated with PBS only. IC50 values were calculated using GraphPad Prism software. Note: for the assay performed over 96 h, 5% human serum was added to media instead of 10% fetal bovine serum, to limit non-specific antibody internalisation. This had little effect on ADC toxicity.

[5] = Quantitative LC-MS/MS of β-lapachone in xenograft mouse tumour; format: in vivo, NOD-SCID mice; conditions: fixed tumour homogenate of mice treated with ADC Gem-HC-239iC-BL
Procedure: Concentrations of β-lapachone in formalin-fixed tumour and the respective formol supernatant were quantified using reversed-phase ultra-high-performance liquid chromatography tandem mass spectrometry as previously described. Care was taken during sample handling to minimize exposure to light, and amber glass/plastic and foil wrapping were used where possible. Tumour tissue was homogenized to a concentration of 200 mg ml^−1 with PBS. An aliquot of homogenate or formol supernatant sample was transferred to a fresh tube with cryptotanshinone (internal standard) in ethyl acetate for liquid–liquid extraction. Samples were mixed, centrifuged and the ethyl acetate layer transferred to a 96-well plate, evaporated and reconstituted in 0.1% formic acid in acetonitrile:water 70:30. PBS was used as the surrogate matrix for calibration standards and quality-control samples. The calibration ranges were 0.25–250 ng g^−1 (homogenate) and 0.05–50 ng ml^−1 (formol). The analytical batches included quality-control samples at low, medium and high concentrations. The analysis was performed on a Shimadzu Nexera X2 UHPLC coupled to a Sciex TripleTOF 6600 mass spectrometer. The extracted samples were injected onto a Phenomenex Kinetex EVO C18, 1.7 µm, 50 × 2.1 mm analytical column, at 35 °C. […]

[6] = tested on: AML cell line MOLM-13; assay: Viability assay with small-molecule prodrugs, MOLM-13; format: cell-based; conditions: 5 µM, 24 h
Procedure: as §1

| Compound | ROS generation in HL-60 [1] | decrease in toxicity relative to 1 [2] | toxicity with NH4Cl at 30 mM [3] | IC50 [4] | concentration of 1 in tumour tissue [5] | toxicity to MOLM-13 at 5 µM [6] |
| --- | --- | --- | --- | --- | --- | --- |
| CC1(C)CCC2=C(O1)c1ccccc1C(O)(Cc1ccccc1)C2=O (stereo not drawn) [Compound 24, benzyl β-lapa-ketol] | did not generate detectable ROS | > 20 fold | – | – | – | – |
| CC1(C)CCC2=C(O1)c1ccccc1C(=O)C2=O [Compound 1, β-lapachone, reference compound] | – | – | increase in toxicity | ~1 µM | 0.327 ng/g | complete cell death |
